Data taken from patent EP1222194B1, “7-ACYLAMINO-3-HETEROARYLTHIO-3-CEPHEM CARBOXYLIC ACID ANTIBIOTICS AND PRODRUGS THEREOF” (priority 1999, dated 2001).
≈ marks a conversion by molar mass, not a printed value.

Legend:
[1] = Serum binding determination by ultrafiltration and HPLC; assay type: in vitro ADME; details: % of compound bound to serum as determined by HPLC
Method: The more accurate measurement of binding of selected cephalosporin compounds was performed using HPLC as described below. […] Serum is placed in a shaking water bath preheated to 37 ± 2 °C for 5 to 10 minutes to heat serum to 37 °C. Serum pH is measured and recorded, while serum is 37 °C using pH paper. Measurements are taken twice, 3 minutes apart. If the pH is not 7.4 ± 0.4 then the pH is adjusted by blowing 5% CO2/95% O2 over the serum. After blowing for several minutes, serum is heated to 37 °C and measurements are taken twice, 3 minutes apart using pH paper to determine the pH. Store at 4 °C. The serum is stable for 7 days. Always check the pH before each use. • 2. Before any centrifugation, the centrifuge temperature must be adjusted to 25 ± 2 °C. Preheat the centrifuge by spinning for 45 minutes at the same speed to be used in the assay (1900 g) with two tubes of water in the rotor and the temperature set to 25 °C. When the centrifuge stops immediately check the temperature of the tubes of water with a calibrated thermometer. The temperature of the tubes of water must be 25 ± 2 °C. […] Continue spinning and measuring the temperature and adjusting the setting until the temperature is 25 ± 2 °C. • 3. Prepare blank ultrafiltrate by pipetting blank pH 7.4 serum into an Amicon Centrifree Micropartition devices, centrifuge: fixed angle rotor, 1900 g, 25 °C for 20 minutes. Heat ultrafiltrate in a shaking water bath preheated to 37 °C. Measure ultrafiltrate pH and adjust to the pH of the serum (7.4 ± 0.2). • 4. Pipette 190 ul of blank ultrafiltrate into a set of labeled 1.7 mL polypropylene microfuge tubes for 3 of each level. Pipette 10 µL of the appropriate standard stock 50, 200, 1000 µg/mL to make standards 2.5, 10, and 50 µg/mL respectively. Vortex each tube well. One set of the standard samples are mixed 1:1 with 0.2 M acetic acid and injected onto the HPLC (MSTD). These samples are the membrane standards and will be used to compare to the other standards. Pipette 190 ul of ultrafiltrate and spike with 10 ul of whatever solution (e.g. water) the standards are prepared in to make the zero standard. • 5. Pipette 475 µL of blank heated pH 7.4 serum into a set of labeled 1.7 mL polypropylene microfuge tubes for 2 of each (Serum A and Serum B). Pipette 25 µL of the 1000 µg/mL standard stock into each tube, vortex each tube well to make serum standard 50 µg/mL. Remove 100 µL of serum and deproteinate with 200 µL 4% TCA while vortexing to make serum time 0 (serum 50, T0). Place serum tubes in a shaking water bath at 37 °C for 10 minutes. Pipet 100 µL of serum out and deproteinate with 200 µL 4% TCA, to make serum time 10 min (serum 50, T10). Pipet 200 ul serum standard 50 µg/mL into an ultrafiltration device, which is not treated with TCA, to determine free drug in samples (Rat Serum 50). • 6. Transfer serum and standard samples to labeled Amicon Centrifree Micropartition filters, and centrifuge: 1900 g, 25 °C for 10 minutes. The extracted serum samples (T0 and T 10) are spun down and supernatant is loaded into HPLC vials. • 7. 100 µL of ultrafiltrate sample and 100 µL of 0.2 M acetic acid were mixed together to stabilize the compound in ultrafiltrate. • 8. Transfer entire stabilized ultrafiltrate solution to a labeled autoinjector HPLC vial cap with Teflon septa, and inject on HPLC.
Peak height or area is used in a weighted linear regression.

[2] = system: S. aureus PC1 (Meth^S)(lac^+); assay: Broth microdilution MIC (NCCLS); assay type: cell-based; details: Staphylococcus aureus; S. aureus PC1 (Meth^S)(lac^+); Mueller-Hinton Broth, 24 h at 35 °C; read-out: MIC
Method in brief: (§1)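 Compounds were serially diluted 2-fold in Mueller-Hinton broth, and bacteria were added at a final 5 x 10^5 CFU/mL from early-log-phase cultures. Plates were incubated 24 h at 35 °C. MIC was the lowest drug concentration preventing growth, read at 650 nm and visually.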

[3] = system: S. aureus Col8A(Meth^S)(lac^-); assay: Broth microdilution MIC (NCCLS); assay type: cell-based; details: Staphylococcus aureus, Mueller-Hinton Broth, 24 h at 35 °C
Method in brief: as §1

| SMILES | fraction unbound ([1]; rat serum) | fraction unbound ([1]; rhesus monkey) | MIC [2] [µg/mL] | MIC [3] [µg/mL] |
| --- | --- | --- | --- | --- |
| NCCSCc1ncccc1SC1=C(C(=O)O)N2C(=O)[C@@H](NC(=O)/C(=N\O)c3nc(N)sc3Cl)[C@H]2SC1 [Cmpd 1, (7R)-7-[(Z)-2-(2-amino-5-chlorothiazol-4-yl)-2-(hydroxyimino)acetamido]-3-[2-(2-aminoethylthiomethyl)pyrid-3-ylthio]-3-cephem-4-carboxylic acid] | 0.15 |  |  |  |
| NCCSCc1ncccc1SC1=C(C(=O)O)N2C(=O)[C@@H](NC(=O)/C(=N\O)c3nsc(N)n3)[C@H]2SC1 [Cmpd 2, (7R)-7-[(Z)-2-(5-amino-1,2,4-thiadiazol-3-yl)-2-(hydroxyimino)acetamido]-3-[2-(2-aminoethylthiomethyl)pyrid-3-ylthio]-3-cephem-4-carboxylic acid] | 0.26 | 0.19 |  |  |
| N=C(N)NCCSCc1ncccc1SC1=C(C(=O)O)N2C(=O)[C@@H](NC(=O)/C(=N\O)c3nsc(N)n3)[C@H]2SC1 [Cmpd 2-R, (7R)-7-[(Z)-2-(5-amino-1,2,4-thiadiazol-3-yl)-2-(hydroxyimino)acetamido]-3-[2-(2-guanidinoethylthiomethyl)pyrid-3-ylthio]-3-cephem-4-carboxylic acid] |  |  | 0.13 (≈ 0.213 µM) | 0.25 (≈ 0.409 µM) |
| N=C(N)NCCSCc1ncccc1SC1=C(C(=O)O)N2C(=O)[C@@H](NC(=O)/C(=N\O)c3nc(N)sc3Cl)[C@H]2SC1 [Cmpd 2-S, (7R)-7-[(Z)-2-(2-amino-5-chlorothiazol-4-yl)-2-(hydroxyimino)acetamido]-3-[2-(2-guanidinoethylthiomethyl)pyrid-3-ylthio]-3-cephem-4-carboxylic acid] | 0.24 | 0.12 | 0.13 (≈ 0.202 µM) | 0.125 (≈ 0.194 µM) |
| NCCSCc1ccncc1SC1=C(C(=O)O)N2C(=O)[C@@H](NC(=O)/C(=N\O)c3nc(N)sc3Cl)[C@H]2SC1 [Cmpd 3, (7R)-7-[(Z)-2-(2-amino-5-chlorothiazol-4-yl)-2-(hydroxyimino)acetamido]-3-[4-(2-aminoethylthiomethyl)pyrid-3-ylthio]-3-cephem-4-carboxylic acid] | 0.03 | 0.03 |  |  |
